Laboratory results taken from patent publication EP4745137A1 (Gluetacs Therapeutics (Shanghai) Co., Ltd., priority 2023, dated 2025).
pIC50: −log10 of the molar value.

What was measured:
[1] = molecular target: T1, CK1α (Homo sapiens, UniProt P48729+Q96SW2); test: Western-blot assay of substrate protein degradation in hPBMCs, CK1α; type: cell-based; conditions: 24 hours of compound treatment
T1 construct: endogenous in cells; host or cells: hPBMCs (Milecell Biotechnologies)

[2] = molecular target: T2, GSPT1 (Homo sapiens, UniProt P15170+Q96SW2); test: Western-blot assay of substrate protein degradation in hPBMCs, GSPT1; type: cell-based; conditions: 24 hours of compound treatment
T2 construct: endogenous in cells; host or cells: hPBMCs (Milecell Biotechnologies)

[3] = molecular target: T3, WEE1 (Homo sapiens, UniProt P30291+Q96SW2); test: Western-blot assay of substrate protein degradation in hPBMCs, WEE1; type: cell-based; conditions: 24 hours of compound treatment
T3 construct: endogenous in cells; host or cells: hPBMCs (Milecell Biotechnologies)

[4] = molecular target: T4, human Cereblon WT GST-tagged protein (Homo sapiens, UniProt Q96SW2); test: CRBN-binding affinity by HTRF (CEREBLON BINDING kit); conditions: HTRF inhibitory activity, CEREBLON BINDING kit; read-out: HTRF IC50
T4 construct: purchased CISBIO 64BDCRBNPEH

[5] = molecular target: T5, IKZF3 (Homo sapiens, UniProt Q96SW2+Q9UKT9); test: Western-blot assay of substrate protein degradation in hPBMCs, IKZF3; type: cell-based; conditions: 24 hours of compound treatment
T5 construct: endogenous in cells; host or cells: hPBMCs (Milecell Biotechnologies)

[6] = molecular target: T6, IKZF2 (Homo sapiens, UniProt Q96SW2+Q9UKS7); test: Western-blot assay of substrate protein degradation in hPBMCs, IKZF2; type: cell-based; conditions: 24 hours of compound treatment
T6 construct: endogenous in cells; host or cells: hPBMCs (Milecell Biotechnologies)

[7] = test system: MM.1S; test: Tumor cell proliferation inhibition (CellTiter-Meiluncell Luminescent Cell Viability Assay), MM.1S; conditions: Homo sapiens, MM1.S, read-out: inhibitory activity (IC50, nM) against tumor cells proliferation, MM.1S
Description: (§1) The tumor cells used herein were cultured in a cell culture medium listed in table 2 at 37°C in an incubator with 5% CO2. Prior to experimentation, all cell lines used were correctly identified by STR profiling, and tested negative for mycoplasma contamination using a mycoplasma detection kit through routine screenings.
(§2) On the following day, the test compounds of the present disclosure were subjected to serial dilution. […] Subsequently, 0.5 µL of the test compound dilution was transferred into the 96-well plate containing the cells, with each well containing 100 µL of cell culture medium. […] Into the 96-well plate, the diluted test compounds and corresponding detection reagents were added, resulting in final test compound concentrations of 500 nM and 10 nM, respectively.
(§3) After the cells were treated with the compounds of the present disclosure for a specified period (the treatment durations were shown in Table 3), the cell viability assay reagent was added to the culture medium according to the kit's instructions to determine cell viability. […] All controls were treated using the same procedure as the compounds of the present disclosure. The growth inhibition curves for the compounds of the present disclosure were plotted using Prism GraphPad software, and the IC50 values were calculated therefrom.

[8] = molecular target: T7, IKZF1 (Homo sapiens, UniProt Q13422+Q96SW2); test: Western-blot assay of substrate protein degradation in hPBMCs, IKZF1; type: cell-based; conditions: 24 hours of compound treatment
T7 construct: endogenous in cells; host or cells: hPBMCs (Milecell Biotechnologies)

[9] = test system: Human acute T lymphocytic leukemia cells (Molt-4); test: Tumor cell proliferation inhibition (CellTiter-Meiluncell Luminescent Cell Viability Assay), Molt-4; conditions: MOLT-4, read-out: inhibitory activity (IC50, nM) against tumor cells proliferation, Molt-4
[10] = test system: MV-4-11; test: Tumor cell proliferation inhibition (CellTiter-Meiluncell Luminescent Cell Viability Assay), MV-4-11; conditions: Homo sapiens, MV4-11, read-out: inhibitory activity (IC50, nM) against tumor cells proliferation, MV-4-11
Description: as §1, §2, §3

[11] = test system: CCRF-CEM; test: Tumor cell proliferation inhibition (CellTiter-Meiluncell Luminescent Cell Viability Assay), CCRF-CEM; conditions: Homo sapiens, read-out: inhibitory activity (IC50, nM) against tumor cells proliferation, CCRF-CEM
[12] = test system: Jurkat; test: Tumor cell proliferation inhibition (CellTiter-Meiluncell Luminescent Cell Viability Assay), Jurkat; conditions: Homo sapiens, read-out: inhibitory activity (IC50, nM) against tumor cells proliferation, Jurkat
[13] = compounds tested at 50 nM and 500 nM (concentration of the table not stated)
[14] = 50 nM and 500 nM tested (concentration behind the class not stated)

T5 sequence (Q9UKT9 whole entry): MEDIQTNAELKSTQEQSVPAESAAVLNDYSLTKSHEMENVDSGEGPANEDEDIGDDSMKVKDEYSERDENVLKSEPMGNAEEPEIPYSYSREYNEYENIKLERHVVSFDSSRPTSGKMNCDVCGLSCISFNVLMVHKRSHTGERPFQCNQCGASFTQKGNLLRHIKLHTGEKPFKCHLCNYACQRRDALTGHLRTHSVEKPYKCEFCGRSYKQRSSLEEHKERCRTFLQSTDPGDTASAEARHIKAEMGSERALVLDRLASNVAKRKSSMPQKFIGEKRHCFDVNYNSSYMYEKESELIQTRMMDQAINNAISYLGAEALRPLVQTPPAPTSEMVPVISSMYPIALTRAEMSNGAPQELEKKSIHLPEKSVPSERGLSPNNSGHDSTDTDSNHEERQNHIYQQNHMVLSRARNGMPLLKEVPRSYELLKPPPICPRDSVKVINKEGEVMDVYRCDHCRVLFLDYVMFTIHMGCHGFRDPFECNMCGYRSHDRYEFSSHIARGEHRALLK
T5 sequence (Q96SW2 whole entry): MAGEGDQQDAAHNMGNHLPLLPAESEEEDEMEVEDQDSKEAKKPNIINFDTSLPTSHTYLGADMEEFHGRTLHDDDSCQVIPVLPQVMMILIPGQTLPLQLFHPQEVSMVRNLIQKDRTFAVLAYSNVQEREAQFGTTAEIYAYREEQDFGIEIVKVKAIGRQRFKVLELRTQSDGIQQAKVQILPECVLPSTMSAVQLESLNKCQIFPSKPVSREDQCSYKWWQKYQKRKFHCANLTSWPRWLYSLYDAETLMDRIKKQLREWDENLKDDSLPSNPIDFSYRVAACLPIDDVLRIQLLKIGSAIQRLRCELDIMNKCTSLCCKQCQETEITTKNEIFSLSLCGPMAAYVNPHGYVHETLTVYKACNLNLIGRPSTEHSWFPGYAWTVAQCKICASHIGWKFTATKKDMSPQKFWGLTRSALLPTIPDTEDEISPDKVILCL
T5 sequence (Q16531 whole entry partner): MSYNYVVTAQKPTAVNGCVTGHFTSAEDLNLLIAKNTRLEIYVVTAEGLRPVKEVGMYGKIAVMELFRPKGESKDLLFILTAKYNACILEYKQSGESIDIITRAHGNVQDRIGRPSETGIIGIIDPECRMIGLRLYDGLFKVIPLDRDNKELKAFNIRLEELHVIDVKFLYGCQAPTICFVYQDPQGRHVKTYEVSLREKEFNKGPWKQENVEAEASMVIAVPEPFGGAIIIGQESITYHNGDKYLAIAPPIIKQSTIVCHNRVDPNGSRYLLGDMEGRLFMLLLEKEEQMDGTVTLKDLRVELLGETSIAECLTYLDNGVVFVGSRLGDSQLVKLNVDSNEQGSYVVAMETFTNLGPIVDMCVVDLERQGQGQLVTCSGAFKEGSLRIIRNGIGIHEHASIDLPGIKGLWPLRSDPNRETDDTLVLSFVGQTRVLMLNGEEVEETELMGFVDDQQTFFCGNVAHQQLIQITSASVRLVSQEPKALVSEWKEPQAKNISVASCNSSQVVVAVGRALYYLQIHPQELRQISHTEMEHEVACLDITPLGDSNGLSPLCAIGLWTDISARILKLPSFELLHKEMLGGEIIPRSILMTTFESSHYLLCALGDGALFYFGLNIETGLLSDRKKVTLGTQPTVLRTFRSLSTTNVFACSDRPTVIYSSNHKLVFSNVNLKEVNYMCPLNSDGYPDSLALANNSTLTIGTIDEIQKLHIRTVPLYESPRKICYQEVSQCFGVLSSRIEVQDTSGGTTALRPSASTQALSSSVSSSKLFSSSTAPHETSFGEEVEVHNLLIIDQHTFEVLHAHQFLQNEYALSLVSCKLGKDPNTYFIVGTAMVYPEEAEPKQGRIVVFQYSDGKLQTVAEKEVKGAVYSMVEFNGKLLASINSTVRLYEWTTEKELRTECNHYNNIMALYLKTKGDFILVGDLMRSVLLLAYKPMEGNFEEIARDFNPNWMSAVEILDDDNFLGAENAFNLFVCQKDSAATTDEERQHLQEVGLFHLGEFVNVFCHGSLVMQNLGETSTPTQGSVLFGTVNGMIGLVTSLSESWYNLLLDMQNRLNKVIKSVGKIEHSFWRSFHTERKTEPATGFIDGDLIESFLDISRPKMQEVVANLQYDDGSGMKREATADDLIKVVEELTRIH
T6 sequence (Q9UKS7 whole entry): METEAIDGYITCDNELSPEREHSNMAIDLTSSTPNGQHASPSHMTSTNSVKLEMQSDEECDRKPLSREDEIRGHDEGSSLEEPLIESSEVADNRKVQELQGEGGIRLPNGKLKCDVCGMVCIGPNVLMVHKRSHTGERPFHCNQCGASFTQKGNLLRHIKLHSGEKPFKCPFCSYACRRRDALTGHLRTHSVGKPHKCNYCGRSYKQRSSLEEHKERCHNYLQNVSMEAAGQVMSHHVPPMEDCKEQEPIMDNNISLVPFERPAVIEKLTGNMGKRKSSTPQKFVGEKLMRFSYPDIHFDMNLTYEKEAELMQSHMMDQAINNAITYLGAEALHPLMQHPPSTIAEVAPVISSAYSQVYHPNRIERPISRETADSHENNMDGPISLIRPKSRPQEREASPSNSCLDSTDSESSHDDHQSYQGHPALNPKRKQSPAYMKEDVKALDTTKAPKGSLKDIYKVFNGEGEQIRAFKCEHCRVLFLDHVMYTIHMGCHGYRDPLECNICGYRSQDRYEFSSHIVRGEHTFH
T6 sequence (Q96SW2 whole entry): as the sequence (Q96SW2 whole entry) above
T6 sequence (Q16531 whole entry partner): as the sequence (Q16531 whole entry partner) above
T7 sequence (Q13422 whole entry): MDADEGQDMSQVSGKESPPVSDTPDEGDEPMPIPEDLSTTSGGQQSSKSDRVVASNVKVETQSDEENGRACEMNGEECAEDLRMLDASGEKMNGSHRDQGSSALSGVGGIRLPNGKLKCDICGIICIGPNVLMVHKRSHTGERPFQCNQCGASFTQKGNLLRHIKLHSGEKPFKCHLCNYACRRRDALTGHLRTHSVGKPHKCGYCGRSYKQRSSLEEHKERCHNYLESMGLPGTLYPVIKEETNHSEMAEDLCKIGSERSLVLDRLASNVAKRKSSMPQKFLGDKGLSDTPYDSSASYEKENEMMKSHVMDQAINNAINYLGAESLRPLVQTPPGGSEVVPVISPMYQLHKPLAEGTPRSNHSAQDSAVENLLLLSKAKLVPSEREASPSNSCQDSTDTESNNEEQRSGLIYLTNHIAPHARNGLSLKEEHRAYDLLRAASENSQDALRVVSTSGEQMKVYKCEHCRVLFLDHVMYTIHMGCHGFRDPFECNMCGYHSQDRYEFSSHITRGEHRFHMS
T7 sequence (Q96SW2 whole entry): as the sequence (Q96SW2 whole entry) above
T7 sequence (Q16531 whole entry partner): as the sequence (Q16531 whole entry partner) above
T2 sequence (P15170 whole entry): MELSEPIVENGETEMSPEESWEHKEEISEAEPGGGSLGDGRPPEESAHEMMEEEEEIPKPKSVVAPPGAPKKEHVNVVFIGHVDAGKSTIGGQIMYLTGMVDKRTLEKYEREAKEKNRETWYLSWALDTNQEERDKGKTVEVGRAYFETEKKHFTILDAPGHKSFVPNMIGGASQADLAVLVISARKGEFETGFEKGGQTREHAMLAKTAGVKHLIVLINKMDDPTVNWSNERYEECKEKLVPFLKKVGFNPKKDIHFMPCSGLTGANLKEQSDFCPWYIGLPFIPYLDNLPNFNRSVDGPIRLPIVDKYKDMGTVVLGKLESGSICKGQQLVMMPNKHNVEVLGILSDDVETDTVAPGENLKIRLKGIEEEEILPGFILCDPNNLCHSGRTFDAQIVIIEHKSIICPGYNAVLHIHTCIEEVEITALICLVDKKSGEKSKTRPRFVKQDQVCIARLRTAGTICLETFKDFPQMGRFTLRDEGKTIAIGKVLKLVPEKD
T2 sequence (Q96SW2 whole entry): as the sequence (Q96SW2 whole entry) above
T2 sequence (Q16531 whole entry partner): as the sequence (Q16531 whole entry partner) above
T3 sequence (P30291 whole entry): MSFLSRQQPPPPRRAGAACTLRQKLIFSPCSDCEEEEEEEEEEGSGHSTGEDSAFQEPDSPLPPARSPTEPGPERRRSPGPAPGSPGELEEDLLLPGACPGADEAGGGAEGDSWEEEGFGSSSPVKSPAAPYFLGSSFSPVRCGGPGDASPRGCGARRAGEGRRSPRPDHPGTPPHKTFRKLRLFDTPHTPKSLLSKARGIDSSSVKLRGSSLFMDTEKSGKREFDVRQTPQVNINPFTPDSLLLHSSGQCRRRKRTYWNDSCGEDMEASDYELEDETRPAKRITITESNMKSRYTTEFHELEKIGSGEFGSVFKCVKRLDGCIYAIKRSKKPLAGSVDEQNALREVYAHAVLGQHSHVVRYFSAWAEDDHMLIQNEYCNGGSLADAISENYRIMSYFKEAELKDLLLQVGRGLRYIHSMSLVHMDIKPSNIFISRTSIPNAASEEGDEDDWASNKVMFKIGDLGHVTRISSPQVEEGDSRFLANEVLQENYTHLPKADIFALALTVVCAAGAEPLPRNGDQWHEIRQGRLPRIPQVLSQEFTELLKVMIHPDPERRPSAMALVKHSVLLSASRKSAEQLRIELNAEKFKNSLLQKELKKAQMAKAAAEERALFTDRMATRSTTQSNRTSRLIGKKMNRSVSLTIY
T3 sequence (Q96SW2 whole entry): as the sequence (Q96SW2 whole entry) above
T3 sequence (Q16531 whole entry partner): as the sequence (Q16531 whole entry partner) above
T4 sequence (Q96SW2 whole entry): as the sequence (Q96SW2 whole entry) above

pIC50 [4] | IC50 [7] [nM] | Structure (SMILES) | CK1a substrate protein remaining % [1, 13] | GSPT1 substrate protein remaining % [2, 13] | Weel substrate protein remaining % [3, 13] | IKZF3 substrate protein remaining % [5, 13] | IKZF2 substrate protein remaining % [6, 13] | IKZF 1 substrate protein remaining % [8, 13] | IC50 [9] [nM] | IC50 [10] [nM] | CK1a substrate protein remaining % [1, 14] | IC50 [11] [nM] | IC50 [12] [nM] | GSPT1 substrate protein remaining % [2, 14] | Weel substrate protein remaining % [3, 14] | IKZF3 substrate protein remaining % [5, 14] | IKZF2 substrate protein remaining % [6, 14] | IKZF 1 substrate protein remaining % [8, 14]
6.00 to 6.30 | 10 to 50 | O=C1CCC(N2Cc3cc(CN4CCCN(c5cccc(Cl)c5Cl)CC4)ccc3C2=O)C(=O)N1 (stereo not drawn) [GT-04856, 3-(5-((4-(2,3-dichlorophenyl)-1,4-diazepan-1-yl)methyl)-1-oxoisoindolin-2-yl)piperidine-2,6-dione] | B (80%< substrate protein remaining %≤ 100%) | A (0% ≤ substrate protein remaining % ≤ 80%) | A (0% ≤ substrate protein remaining % ≤ 80%) | A (0% ≤ substrate protein remaining % ≤ 80%) | A (0% ≤ substrate protein remaining % ≤ 80%) | A (0% ≤ substrate protein remaining % ≤ 80%) | – | – | – | – | – | – | – | – | – | –
> 6.30 | 10 to 50 | Cc1nc(C2=CCN(Cc3ccc4c(c3)CN(C3CCC(=O)NC3=O)C4=O)CC2)c2c3c(sc2n1)CCCC3 (stereo not drawn) [GT-04863, 3-(5-((4-(2-methyl-5,6,7,8-tetrahydrobenzo[4,5]thieno[2,3-d]pyrimidin-4-yl)-3,6-dihydropyridin-1 (2H)-yl)methyl)-1-oxoisoindolin-2-yl)piperidine-2,6-dione] | A (0% ≤ substrate protein remaining % ≤ 80%) | A (0% ≤ substrate protein remaining % ≤ 80%) | A (0% ≤ substrate protein remaining % ≤ 80%) | A (0% ≤ substrate protein remaining % ≤ 80%) | A (0% ≤ substrate protein remaining % ≤ 80%) | A (0% ≤ substrate protein remaining % ≤ 80%) | – | – | – | – | – | – | – | – | – | –
> 6.30 | 10 to 50 | Cc1nc(N2CCN(Cc3ccc4c(c3)CN(C3CCC(=O)NC3=O)C4=O)CC2)c2c3c(sc2n1)CCCC3 (stereo not drawn) [GT-04900, 3-(5-((4-(2-methyl-5,6,7,8-tetrahydrobenzo[4,5]thieno[2,3-d]pyrimidin-4-yl)piperazin-1-yl)methyl)-1-oxoisoindolin-2-yl)piperidine-2,6-dione] | A (0% ≤ substrate protein remaining % ≤ 80%) | B (80%< substrate protein remaining %≤ 100%) | B (80%< substrate protein remaining %≤ 100%) | A (0% ≤ substrate protein remaining % ≤ 80%) | A (0% ≤ substrate protein remaining % ≤ 80%) | A (0% ≤ substrate protein remaining % ≤ 80%) | – | – | – | – | – | – | – | – | – | –
> 6.30 | 10 to 50 | O=C1CCC(N2Cc3cc(CN4CCC(C5CCOc6cc(F)ccc65)CC4)ccc3C2=O)C(=O)N1 (stereo not drawn) [GT-04901, 3-(5-((4-(7-fluorochroman-4-yl)piperidin-1-yl)methyl)-1-oxoisoindolin-2-yl)piperidine-2,6-dione] | B (80%< substrate protein remaining %≤ 100%) | B (80%< substrate protein remaining %≤ 100%) | B (80%< substrate protein remaining %≤ 100%) | A (0% ≤ substrate protein remaining % ≤ 80%) | A (0% ≤ substrate protein remaining % ≤ 80%) | A (0% ≤ substrate protein remaining % ≤ 80%) | – | – | – | – | – | – | – | – | – | –

Second part, the molecule before the results:

Structure (SMILES) | pIC50 [4] | IC50 [7] [nM] | CK1a substrate protein remaining % [1, 13] | GSPT1 substrate protein remaining % [2, 13] | Weel substrate protein remaining % [3, 13] | IKZF3 substrate protein remaining % [5, 13] | IKZF2 substrate protein remaining % [6, 13] | IKZF 1 substrate protein remaining % [8, 13] | IC50 [9] [nM] | IC50 [10] [nM] | CK1a substrate protein remaining % [1, 14] | IC50 [11] [nM] | IC50 [12] [nM] | GSPT1 substrate protein remaining % [2, 14] | Weel substrate protein remaining % [3, 14] | IKZF3 substrate protein remaining % [5, 14] | IKZF2 substrate protein remaining % [6, 14] | IKZF 1 substrate protein remaining % [8, 14]
O=C1CCC(N2Cc3cc(CN4CCC(N5CCOc6cc(F)ccc65)CC4)ccc3C2=O)C(=O)N1 (stereo not drawn) [GT-04859, 3-(5-((4-(7-fluoro-2,3-dihydro-4H-benzo[b][1,4]oxazin-4-yl)piperidin-1-yl)methyl)-1-oxoisoindolin-2-yl)piperidine-2,6-dione] | > 6.30 | 50 to 100 | B (80%< substrate protein remaining %≤ 100%) | A (0% ≤ substrate protein remaining % ≤ 80%) | B (80%< substrate protein remaining %≤ 100%) | A (0% ≤ substrate protein remaining % ≤ 80%) | A (0% ≤ substrate protein remaining % ≤ 80%) | A (0% ≤ substrate protein remaining % ≤ 80%) | – | – | – | – | – | – | – | – | – | –
O=C1CCC(N2Cc3cc(CN4C[C@@H]5C[C@H]4CN5c4cccc(Cl)c4Cl)ccc3C2=O)C(=O)N1 (stereo partly drawn) [GT-04898, 3-(5-(((1S,4S)-5-(2,3-dichlorophenyl)-2,5-diazabicyclo[2.2.1]heptan-2-yl)methyl)-1-oxoisoindolin-2-yl)piperidine-2,6-dione] | > 6.30 | 5 to 10 | B (80%< substrate protein remaining %≤ 100%) | A (0% ≤ substrate protein remaining % ≤ 80%) | B (80%< substrate protein remaining %≤ 100%) | A (0% ≤ substrate protein remaining % ≤ 80%) | A (0% ≤ substrate protein remaining % ≤ 80%) | A (0% ≤ substrate protein remaining % ≤ 80%) | – | – | – | – | – | – | – | – | – | –
O=C1CCC(N2C(=O)c3ccc(CN4CC=C(c5cncc(Cl)c5Cl)CC4)cc3C2=O)C(=O)N1 (stereo not drawn) [GT-06609, 5-((4,5-dichloro-3',6'-dihydro-[3,4'-bipyridin]-1'(2'H)-yl)methyl)-2-(2,6-dioxopiperidin-3-yl)isoindoline-1,3-dione] | 6.00 to 6.30 | – | – | – | – | – | – | – | 100 to 500 | 100 to 500 | B (80%< substrate protein remaining %≤ 100%) | 100 to 500 | 100 to 500 | A (0% ≤ substrate protein remaining % ≤ 80%) | A (0% ≤ substrate protein remaining % ≤ 80%) | A (0% ≤ substrate protein remaining % ≤ 80%) | A (0% ≤ substrate protein remaining % ≤ 80%) | A (0% ≤ substrate protein remaining % ≤ 80%)
O=C1CCC(N2C(=O)c3ccc(CN4CC=C(c5ccnc(Cl)c5Cl)CC4)cc3C2=O)C(=O)N1 (stereo not drawn) [GT-06616, 5-((2',3'-dichloro-3,6-dihydro-[4,4'-bipyridin]-1(2H)-yl)methyl)-2-(2,6-dioxopiperidin-3-yl)isoindoline-1,3-dione] | 5.72 to 5.82 | – | – | – | – | – | – | – | 500 to 1000 | 100 to 500 | A (0% ≤ substrate protein remaining % ≤ 80%) | 500 to 1000 | – | A (0% ≤ substrate protein remaining % ≤ 80%) | A (0% ≤ substrate protein remaining % ≤ 80%) | A (0% ≤ substrate protein remaining % ≤ 80%) | B (80%< substrate protein remaining %≤ 100%) | A (0% ≤ substrate protein remaining % ≤ 80%)
O=C1CCC(N2C(=O)c3ccc(CN4C5CCC4CN(c4cccc(Cl)c4Cl)C5)cc3C2=O)C(=O)N1 (stereo not drawn) [GT-06694, 5-((3-(2,3-dichlorophenyl)-3,8-diazabicyclo[3.2.1]octan-8-yl)methyl)-2-(2,6-dioxopiperidin-3-yl)isoindoline-1,3-dione] | – | – | – | – | – | – | – | – | 500 to 1000 | 100 to 500 | B (80%< substrate protein remaining %≤ 100%) | 500 to 1000 | – | A (0% ≤ substrate protein remaining % ≤ 80%) | A (0% ≤ substrate protein remaining % ≤ 80%) | B (80%< substrate protein remaining %≤ 100%) | A (0% ≤ substrate protein remaining % ≤ 80%) | B (80%< substrate protein remaining %≤ 100%)
O=C1CCC(N2C(=O)c3ccc(CN4CC=C(c5c[nH]c6ncccc56)CC4)cc3C2=O)C(=O)N1 (stereo not drawn) [GT-06706, 5-((4-(1H-pyrrolo[2,3-b]pyridin-3-yl)-3,6-dihydropyridin-1(2H)-yl)methyl)-2-(2,6-dioxopiperidin-3-yl)isoindoline-1,3-dione] | – | – | – | – | – | – | – | – | 500 to 1000 | 100 to 500 | A (0% ≤ substrate protein remaining % ≤ 80%) | 500 to 1000 | – | A (0% ≤ substrate protein remaining % ≤ 80%) | A (0% ≤ substrate protein remaining % ≤ 80%) | A (0% ≤ substrate protein remaining % ≤ 80%) | A (0% ≤ substrate protein remaining % ≤ 80%) | A (0% ≤ substrate protein remaining % ≤ 80%)
